Like-named read-outs stand apart in the source and are kept apart here.
Experiments:
[1] = test system: mouse 4T1 breast cancer cells
Description: Cells were incubated with varying concentrations for 48 hours, followed by CCK8 reagent. The absorbance at 450 nm was recorded.
Biocompatibility of the peptidic oligomers was characterized in a toxicity assay of the empty beta and gamma chains performed with mouse 4T1 breast cancer cells (FIG. 4). […] Cells were incubated with varying concentrations for 48 hours, followed by CCK8 reagent. The absorbance at 450 nm was recorded.

vacuolar ATPase = assay: Bafilomycin A1 block of FITC-labeled CPP translocation, flow cytometry; assay type: cell-based
From the text: FIG. 15: Bafilomycin Al blocks CPP translocation. (A) FITC-labeled B6 and G6 are easily detected by flow cytometry.
Vacuolar ATPase aids in the transport to the interior of acidic organelles and BafA1 efficiently neutralizes the luminal pH, inhibits acidic hydrolases, and impairs the fusion among acidic organelles.

4T1 breast cancer cells = assay: In vitro cell viability assay, CellTiter-Glo, 72 hours; assay type: cell-based, mouse; conditions: 4T1 cells
Description: The assay was run for 72 hours with the CellTiter-Glo assay to determine cell viability.

CC(C)(C)OC(=O)N[C@@H](CNC(=O)[C@H](CNC(=O)[C@H](CNC(=O)[C@H](CNC(=O)[C@H](CNC(=O)[C@H](CN)NC(=O)OC(C)(C)C)NC(=O)OC(C)(C)C)NC(=O)OC(C)(C)C)NC(=O)OC(C)(C)C)NC(=O)OC(C)(C)C)C(=O)O [B6]
cellular toxicity (number of viable cells) [1]: do not display cellular toxicity

CO/C1=C\C(C)=C\[C@@H](C)[C@@H](O)[C@@H](C)C/C(C)=C/C=C/[C@H](OC)[C@@H]([C@@H](C)[C@@H](O)[C@H](C)[C@@]2(O)C[C@@H](O)[C@H](C)[C@@H](C(C)C)O2)OC1=O [Bafilomycin A1]
effect on FITC-labeled CPP binding and translocation (FITC signal) (vacuolar ATPase): blocked FITC-labeled CPP
effect on FITC-labeled CPP binding and translocation (FITC signal) (vacuolar ATPase; listed as BafA1): blocks B6-FITC binding and translocation

CC(C)(C)OC(=O)N[C@@H](CCNC(=O)[C@H](CCNC(=O)[C@H](CCNC(=O)[C@H](CCNC(=O)[C@H](CCNC(=O)[C@H](CCN)NC(=O)OC(C)(C)C)NC(=O)OC(C)(C)C)NC(=O)OC(C)(C)C)NC(=O)OC(C)(C)C)NC(=O)OC(C)(C)C)C(=O)O [G6]
cellular toxicity (number of viable cells) [1]: do not display cellular toxicity

C[S+]([O-])CCCCN=C=S (centres unmarked) [sulforaphane, D, L sulforaphane]
concentration showing significant activity (4T1 breast cancer cells): 10 mM
